Measurements: publication PMC5007443, “TNIK inhibition abrogates colorectal cancer stemness” (Nature Communications, 2016)
Values joined by “and” are separate entries in the source; they are usually repeats but may differ in a detail not shown here. Equal values may be shown once.

Tests used:
FLT3 = FLT3 (Homo sapiens, UniProt P36888); test: Kinase selectivity profiling, Fms-related tyrosine kinase 3; format: biochemical; conditions: 0.1 µM inhibitor, ATP at Km
Procedure: (§1) The selectivity of compounds against a panel of 50 human protein kinases was assessed using a non-radiometric assay.

IGF1R = IGF1R (Homo sapiens, UniProt P08069); test: Kinase selectivity profiling, Insulin-like growth factor 1 receptor; format: biochemical; conditions: read-out: Percentage inhibition of IGF1R
Procedure: as §1

LCK = LCK (Homo sapiens, UniProt P06239); test: Kinase selectivity profiling, Lymphocyte-specific protein tyrosine kinase; format: biochemical; conditions: read-out: Percentage inhibition of LCK
Procedure: as §1

PYK2 = PYK2 (Homo sapiens, UniProt Q14289); test: Kinase selectivity profiling, Proline-rich tyrosine kinase 2; format: biochemical; conditions: read-out: Percentage inhibition of PYK2
Procedure: as §1

SRC = SRC (Homo sapiens, UniProt P12931); test: Kinase selectivity profiling, v-Src sarcoma viral oncogene homolog; format: biochemical; conditions: read-out: Percentage inhibition of SRC
Procedure: as §1

TRKA = TRKA (Homo sapiens, UniProt P04629); test: Kinase selectivity profiling, Tropomyosin receptor kinase A; format: biochemical; conditions: 0.1 µM inhibitor, ATP at Km; for inhibition at 0.1 µM: read-out: Percentage inhibition of TRKA
Procedure: as §1

AurA = AurA (Homo sapiens, UniProt O14965); test: Kinase selectivity profiling, Aurora kinase A; format: biochemical; conditions: read-out: Percentage inhibition of AurA
Procedure: as §1

CaMK4 = CaMK4 (Homo sapiens, UniProt Q16566); test: Kinase selectivity profiling, Calcium/calmodulin-dependent protein kinase IV; format: biochemical; conditions: read-out: Percentage inhibition of CaMK4
Procedure: as §1

CHK1 = CHK1 (Homo sapiens, UniProt O14757); test: Kinase selectivity profiling, Checkpoint kinase 1; format: biochemical; conditions: read-out: Percentage inhibition of CHK1
Procedure: as §1

DAPK1 = DAPK1 (Homo sapiens, UniProt P53355); test: Kinase selectivity profiling, Death-associated protein kinase 1; format: biochemical; conditions: read-out: Percentage inhibition of DAPK1
Procedure: as §1

JNK2 = JNK2 (Homo sapiens, UniProt P45984); test: Kinase selectivity profiling, c-Jun kinase 2; format: biochemical; conditions: read-out: Percentage inhibition of JNK2
Procedure: as §1

PBK = PBK (Homo sapiens, UniProt Q96KB5); test: Kinase selectivity profiling, PDZ binding kinase; format: biochemical; conditions: read-out: Percentage inhibition of PBK
Procedure: as §1

PIM1 = PIM1 (Homo sapiens, UniProt P11309); test: Kinase selectivity profiling, Pim-1 oncogene; format: biochemical; conditions: read-out: Percentage inhibition of PIM1
Procedure: as §1

HCT116 cells = test: Limiting dilution analysis of sphere formation, HCT116; format: cell-based, human
Procedure: One million HCT116 and DLD-1 cells were seeded onto 60-mm plates and treated with vehicle (DMSO) or compounds (0.1, 0.3 or 1.0 μM) for either 3 or 4 days. After washing off the compounds, the cells were dissociated to single cells in serum-free DMEM/F12 medium (Thermo Fisher Scientific) containing B27 (Thermo Fisher Scientific), 20 ng ml^−1 epidermal growth factor (EGF; Thermo Fisher Scientific), 10 ng ml^−1 basic fibroblast factor (bFGF; Thermo Fisher Scientific), 5 μg ml^−1 insulin (Thermo Fisher Scientific), 0.4% bovine serum albumin (Sigma-Aldrich) and 2 mM L-glutamine (Thermo Fisher Scientific). One hundred, 10 or 1 viable (determined by trypan-blue dye exclusion) cells were seeded into each well of a 96-well U-bottom PrimeSurface plate (Sumitomo Bakelite). Ten days later, the number of wells showing sphere formation was counted. The frequency of sphere-forming cells was calculated using ELDA software (http://bioinf.wehi.edu.au/software/elda/index.html) provided by the Walter and Eliza Hall Institute (Fig. 5c; Supplementary Table 2). Experiments were performed in triplicate and repeated at least two times.

DLD-1 cells = test: In vivo tumorigenicity of pretreated DLD-1 cells in NOD/ShiJic-scid mice; set-up: species or system mouse; conditions: DLD-1, short-term in vitro treatment
Procedure: After washing off the compounds, 10,000, 1,000, 100 or 10 viable cells in culture medium containing 50% Matrigel (BD Biosciences) were injected subcutaneously into the flanks of NOD/ShiJic-scid Jcl (6-week-old male) mice. The number of mice that developed tumours was counted, and the frequency of cells with tumour-forming capability was calculated using the ELDA software.

[1] = test system: patient-derived colorectal cancer spheroids #19; test: ATP production of patient-derived spheroid #19; format: cell-based; conditions: Homo sapiens, 72 h; spheroid #19, 3 days
Procedure: Cells were seeded at a density of 3,000 cells per well in 96-well plates. Twenty-four hours after seeding, the cells were exposed to serially diluted compounds (0.003, 0.01, 0.03, 0.1, 0.3, 1, 3 and 10 μM) and incubated for 72 h (Fig. 3a). Patient-derived colorectal cancer spheroids were dissociated into single cells with Accutase (Nacalai Tesque) and seeded at a density of 3,000 cells per well into Ultra-Low attachment multiwall 96-well plates (Corning; Fig. 6d). ATP was measured with a CellTiter-Glo Luminescent Cell Viability Assay kit (Promega). Experiments were performed in triplicate and repeated at least two times.

Spheroid #6 = test: ALDH activity of spheroid #6; format: cell-based, human; conditions: spheroid #6, 1 μM, 48 hr
Procedure: Cells with ALDH activity were detected using an Aldefluor kit (Stem Cell Technologies) in accordance with the manufacturer's instructions. Briefly, cells were incubated in Aldefluor assay buffer containing ALDH substrate for 30 min at 37 °C. As a negative control, an aliquot of each sample was treated with 50 mM diethylaminobenzaldehyde (DEAB) to block ALDH activity. Cells were analysed with a Guava easy Cyte HT flow cytometer. Data analysis was performed using the Guava InCyte software. The analysis was performed in triplicate and repeated at least two times.

[2] = HCT116, 3-day treatment, 0.1μM, 1 cell per well
[3] = HCT116, 3-day treatment, 0.1μM, 10 cells per well
[4] = HCT116, 3-day treatment, 0.1μM, 100 cells per well
[5] = HCT116, 3-day treatment, 0.3μM, 1 cell per well
[6] = HCT116, 3-day treatment, 0.3μM, 10 cells per well
[7] = HCT116, 3-day treatment, 0.3μM, 100 cells per well
[8] = HCT116, 3-day treatment, 1.0μM, 1 cell per well
[9] = HCT116, 3-day treatment, 1.0μM, 10 cells per well
[10] = HCT116, 3-day treatment, 1.0μM, 100 cells per well
[11] = HCT116, 4-day treatment, 0.1μM, 1 cell per well
[12] = HCT116, 4-day treatment, 0.1μM, 10 cells per well
[13] = HCT116, 4-day treatment, 0.1μM, 100 cells per well
[14] = HCT116, 4-day treatment, 0.3μM, 1 cell per well
[15] = HCT116, 4-day treatment, 0.3μM, 10 cells per well
[16] = HCT116, 4-day treatment, 0.3μM, 100 cells per well
[17] = HCT116, 4-day treatment, 1.0μM, 1 cell per well
[18] = HCT116, 4-day treatment, 1.0μM, 10 cells per well
[19] = HCT116, 4-day treatment, 1.0μM, 100 cells per well

FLT3, sequence (P36888 27-993): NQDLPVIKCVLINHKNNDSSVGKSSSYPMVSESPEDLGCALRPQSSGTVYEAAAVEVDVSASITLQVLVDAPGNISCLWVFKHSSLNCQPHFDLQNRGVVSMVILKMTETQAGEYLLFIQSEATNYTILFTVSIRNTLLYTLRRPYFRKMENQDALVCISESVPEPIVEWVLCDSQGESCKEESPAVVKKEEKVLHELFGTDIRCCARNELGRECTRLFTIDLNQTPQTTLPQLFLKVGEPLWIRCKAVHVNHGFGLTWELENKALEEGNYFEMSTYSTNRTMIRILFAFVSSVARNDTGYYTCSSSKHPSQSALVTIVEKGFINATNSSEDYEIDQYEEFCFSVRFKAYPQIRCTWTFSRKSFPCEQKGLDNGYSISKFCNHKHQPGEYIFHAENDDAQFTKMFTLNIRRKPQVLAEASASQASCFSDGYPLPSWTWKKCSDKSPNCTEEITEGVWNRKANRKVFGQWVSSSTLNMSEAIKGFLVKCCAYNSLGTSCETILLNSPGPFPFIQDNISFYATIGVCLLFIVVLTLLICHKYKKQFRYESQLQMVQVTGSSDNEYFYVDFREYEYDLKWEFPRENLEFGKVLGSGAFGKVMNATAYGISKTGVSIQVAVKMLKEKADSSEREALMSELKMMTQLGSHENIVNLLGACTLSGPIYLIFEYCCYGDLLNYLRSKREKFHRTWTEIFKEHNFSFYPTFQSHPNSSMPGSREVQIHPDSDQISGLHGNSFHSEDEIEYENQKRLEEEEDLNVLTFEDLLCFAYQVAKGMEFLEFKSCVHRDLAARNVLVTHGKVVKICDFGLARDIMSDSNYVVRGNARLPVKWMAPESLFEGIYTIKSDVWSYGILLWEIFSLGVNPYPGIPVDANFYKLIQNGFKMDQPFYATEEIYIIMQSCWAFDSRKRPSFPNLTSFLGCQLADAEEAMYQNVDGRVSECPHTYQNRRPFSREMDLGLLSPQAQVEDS
TRKA, sequence (P04629 33-796): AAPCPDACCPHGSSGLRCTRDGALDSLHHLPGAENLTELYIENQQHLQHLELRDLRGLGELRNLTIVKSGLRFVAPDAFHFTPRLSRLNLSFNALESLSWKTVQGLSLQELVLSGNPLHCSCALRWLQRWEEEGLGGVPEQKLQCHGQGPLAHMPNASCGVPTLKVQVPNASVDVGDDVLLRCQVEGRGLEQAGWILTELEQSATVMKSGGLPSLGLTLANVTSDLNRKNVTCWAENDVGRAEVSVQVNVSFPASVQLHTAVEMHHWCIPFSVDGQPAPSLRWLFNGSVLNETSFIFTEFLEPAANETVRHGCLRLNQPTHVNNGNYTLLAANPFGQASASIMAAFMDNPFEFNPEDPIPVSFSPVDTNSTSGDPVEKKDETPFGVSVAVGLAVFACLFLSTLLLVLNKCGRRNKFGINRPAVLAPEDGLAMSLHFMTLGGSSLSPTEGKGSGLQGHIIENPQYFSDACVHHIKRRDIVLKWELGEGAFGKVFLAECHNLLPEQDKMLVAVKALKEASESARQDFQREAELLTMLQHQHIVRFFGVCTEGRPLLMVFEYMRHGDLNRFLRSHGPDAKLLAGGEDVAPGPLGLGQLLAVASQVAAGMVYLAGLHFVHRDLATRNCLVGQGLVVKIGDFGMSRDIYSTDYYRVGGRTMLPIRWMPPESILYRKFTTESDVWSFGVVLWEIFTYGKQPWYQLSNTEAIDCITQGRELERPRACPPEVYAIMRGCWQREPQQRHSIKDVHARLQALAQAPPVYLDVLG
AurA, sequence (O14965 whole entry): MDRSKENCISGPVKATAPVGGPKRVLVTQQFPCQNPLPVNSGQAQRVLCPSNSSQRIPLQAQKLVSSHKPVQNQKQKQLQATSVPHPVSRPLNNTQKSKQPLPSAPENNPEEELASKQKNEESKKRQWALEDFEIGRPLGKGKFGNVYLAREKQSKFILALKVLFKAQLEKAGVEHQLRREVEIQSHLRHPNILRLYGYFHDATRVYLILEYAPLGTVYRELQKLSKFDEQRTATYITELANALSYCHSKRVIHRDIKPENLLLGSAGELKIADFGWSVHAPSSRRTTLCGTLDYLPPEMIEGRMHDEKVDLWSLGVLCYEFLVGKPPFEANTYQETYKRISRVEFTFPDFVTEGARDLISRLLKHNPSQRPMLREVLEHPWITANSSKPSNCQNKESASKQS
PIM1, sequence (P11309 whole entry): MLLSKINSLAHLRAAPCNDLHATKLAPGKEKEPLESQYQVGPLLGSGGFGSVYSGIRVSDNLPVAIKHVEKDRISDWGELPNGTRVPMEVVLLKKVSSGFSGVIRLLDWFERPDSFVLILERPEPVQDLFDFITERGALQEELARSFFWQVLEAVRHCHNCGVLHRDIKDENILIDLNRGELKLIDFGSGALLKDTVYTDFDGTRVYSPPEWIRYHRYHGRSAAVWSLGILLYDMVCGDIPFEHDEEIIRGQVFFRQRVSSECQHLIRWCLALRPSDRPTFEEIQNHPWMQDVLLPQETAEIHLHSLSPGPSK
LCK, sequence (P06239 whole entry): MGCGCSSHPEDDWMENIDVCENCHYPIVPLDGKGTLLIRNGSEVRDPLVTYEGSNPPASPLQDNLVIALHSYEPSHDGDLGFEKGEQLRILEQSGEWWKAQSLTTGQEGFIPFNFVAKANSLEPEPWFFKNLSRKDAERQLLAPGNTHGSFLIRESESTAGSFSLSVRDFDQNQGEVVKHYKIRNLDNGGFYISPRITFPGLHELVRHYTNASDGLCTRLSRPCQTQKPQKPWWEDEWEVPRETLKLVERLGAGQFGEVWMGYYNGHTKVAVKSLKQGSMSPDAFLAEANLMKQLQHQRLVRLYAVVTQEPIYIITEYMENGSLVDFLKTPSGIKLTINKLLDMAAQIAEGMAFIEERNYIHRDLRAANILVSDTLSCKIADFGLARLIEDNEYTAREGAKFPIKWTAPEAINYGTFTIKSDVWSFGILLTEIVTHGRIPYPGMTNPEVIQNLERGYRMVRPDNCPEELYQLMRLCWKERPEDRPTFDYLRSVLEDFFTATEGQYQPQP
JNK2, sequence (P45984 whole entry): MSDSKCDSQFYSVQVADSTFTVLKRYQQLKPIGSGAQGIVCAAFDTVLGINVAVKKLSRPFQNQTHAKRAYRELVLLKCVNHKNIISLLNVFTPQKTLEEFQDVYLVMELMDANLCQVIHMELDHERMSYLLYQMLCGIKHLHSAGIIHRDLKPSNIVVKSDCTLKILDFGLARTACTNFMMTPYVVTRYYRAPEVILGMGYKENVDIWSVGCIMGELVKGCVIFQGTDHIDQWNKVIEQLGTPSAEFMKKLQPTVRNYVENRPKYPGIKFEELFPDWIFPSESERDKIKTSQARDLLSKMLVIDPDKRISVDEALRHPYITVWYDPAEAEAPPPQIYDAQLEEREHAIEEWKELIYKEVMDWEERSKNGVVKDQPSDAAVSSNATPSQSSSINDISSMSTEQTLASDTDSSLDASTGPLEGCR
PBK, sequence (Q96KB5 whole entry): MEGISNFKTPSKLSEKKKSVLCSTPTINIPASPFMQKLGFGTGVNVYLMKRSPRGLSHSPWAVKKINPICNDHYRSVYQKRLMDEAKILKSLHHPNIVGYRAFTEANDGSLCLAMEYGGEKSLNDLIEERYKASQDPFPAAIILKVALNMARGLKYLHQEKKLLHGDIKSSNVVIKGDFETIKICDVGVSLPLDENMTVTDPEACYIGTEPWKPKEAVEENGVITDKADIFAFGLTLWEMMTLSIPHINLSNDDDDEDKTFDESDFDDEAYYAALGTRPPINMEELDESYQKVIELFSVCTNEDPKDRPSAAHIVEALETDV
SRC, sequence (P12931 whole entry): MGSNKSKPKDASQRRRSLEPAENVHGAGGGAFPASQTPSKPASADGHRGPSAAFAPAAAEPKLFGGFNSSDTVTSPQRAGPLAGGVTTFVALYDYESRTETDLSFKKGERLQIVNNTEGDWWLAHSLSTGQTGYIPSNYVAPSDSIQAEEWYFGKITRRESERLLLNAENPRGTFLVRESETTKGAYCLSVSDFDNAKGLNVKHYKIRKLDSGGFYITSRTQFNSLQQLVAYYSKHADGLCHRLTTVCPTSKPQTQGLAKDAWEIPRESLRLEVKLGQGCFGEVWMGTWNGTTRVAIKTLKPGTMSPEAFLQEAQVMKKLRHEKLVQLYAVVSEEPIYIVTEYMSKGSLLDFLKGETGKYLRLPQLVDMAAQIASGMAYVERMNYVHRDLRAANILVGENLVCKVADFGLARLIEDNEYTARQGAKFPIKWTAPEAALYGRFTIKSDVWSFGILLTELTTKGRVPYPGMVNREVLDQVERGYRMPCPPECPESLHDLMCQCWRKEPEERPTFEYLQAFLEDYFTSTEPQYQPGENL
CaMK4, sequence (Q16566 whole entry): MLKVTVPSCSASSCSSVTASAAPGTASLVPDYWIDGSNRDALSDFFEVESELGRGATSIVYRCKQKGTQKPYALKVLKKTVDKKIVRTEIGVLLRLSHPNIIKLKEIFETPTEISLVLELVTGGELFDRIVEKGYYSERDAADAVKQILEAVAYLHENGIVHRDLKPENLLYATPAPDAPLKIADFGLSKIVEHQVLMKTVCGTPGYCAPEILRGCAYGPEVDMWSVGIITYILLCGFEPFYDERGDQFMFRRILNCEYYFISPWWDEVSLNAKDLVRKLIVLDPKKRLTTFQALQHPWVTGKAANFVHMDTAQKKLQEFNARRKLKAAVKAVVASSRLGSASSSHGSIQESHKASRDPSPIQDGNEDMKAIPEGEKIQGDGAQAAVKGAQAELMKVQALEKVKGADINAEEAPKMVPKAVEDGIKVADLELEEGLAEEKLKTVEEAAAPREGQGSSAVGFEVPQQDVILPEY

Row | Compound | inhibition at 0.1 µM (IGF1R) | inhibition at 0.1 µM (LCK) | inhibition at 0.1 µM (PYK2) | inhibition at 0.1 µM (SRC) | inhibition at 0.1 µM (TRKA) | inhibition at 0.1 µM (AurA) | inhibition at 0.1 µM (CaMK4) | inhibition at 0.1 µM (CHK1) | inhibition at 0.1 µM (DAPK1) | inhibition at 0.1 µM (JNK2) | inhibition at 0.1 µM (PBK) | inhibition at 0.1 µM (PIM1) | Sphere-containing wells/total wells (HCT116 cells; [2]) | Sphere-containing wells/total wells (HCT116 cells; [3]) | Sphere-containing wells/total wells (HCT116 cells; [4]) | Sphere-containing wells/total wells (HCT116 cells; [5]) | Sphere-containing wells/total wells (HCT116 cells; [6]) | Sphere-containing wells/total wells (HCT116 cells; [7]) | Sphere-containing wells/total wells (HCT116 cells; [8]) | Sphere-containing wells/total wells (HCT116 cells; [9]) | further results
1 | O[C@H]1CC[C@@H](Oc2cccc3cnc(Nc4ccc5nc[nH]c5c4)nc23)CC1 [NCB-0846, cis-4-(2-(3H-benzo[d]imidazol-5-ylamino)quinazolin-8-yloxy)cyclohexanol] | 10.7% | 23.6% | 73% | 19% | > 80% | 41.4% | -1.5% | 10.1% | 3.7% | 0.3% | -3.9% | -3.1% | 60/96 | 96/96 | 96/96 | 47/96 | 96/96 | 96/96 | 3/96 | 21/96 | Percentage inhibition of FLT3 (FLT3; 0.1 µM): > 80% and 104.1%; Percentage inhibition of TRKA (TRKA; 0.1 µM): 89.1%; Sphere-containing wells/total wells (HCT116 cells; [10]): 95/96; Sphere-containing wells/total wells (HCT116 cells; [11]): 69/96; Sphere-containing wells/total wells (HCT116 cells; [12]): 96/96; Sphere-containing wells/total wells (HCT116 cells; [13]): 96/96; Sphere-containing wells/total wells (HCT116 cells; [14]): 41/96; Sphere-containing wells/total wells (HCT116 cells; [15]): 96/96; Sphere-containing wells/total wells (HCT116 cells; [16]): 96/96; Sphere-containing wells/total wells (HCT116 cells; [17]): 0/96; Sphere-containing wells/total wells (HCT116 cells; [18]): 19/96; Sphere-containing wells/total wells (HCT116 cells; [19]): 93/96; sphere formation activity (HCT116 cells; HCT116, short-term (3–4 days) treatment): significantly abrogated; tumour formation (DLD-1 cells): significantly reduced; IC50 [1]: 620 nM; percentage of cells with ALDH activity, - DEAB (Spheroid #6): 19.43%; percentage of cells with ALDH activity, + DEAB (Spheroid #6): 1.01%
2 | O[C@H]1CC[C@H](Oc2cccc3cnc(Nc4ccc5nc[nH]c5c4)nc23)CC1 [NCB-0970] | 1.2% | 6.8% | 23.6% | 14.4% | 81.6% | 36.5% | -4.1% | 9% | 4.7% | -3% | -5.8% | -5% | 62/96 | 96/96 | 96/96 | 65/96 | 96/96 | 96/96 | 60/96 | 96/96 | inhibition at 0.1 µM (FLT3; read-out: Percentage inhibition of FLT3): 102%; Sphere-containing wells/total wells (HCT116 cells; [10]): 96/96; Sphere-containing wells/total wells (HCT116 cells; [11]): 59/96; Sphere-containing wells/total wells (HCT116 cells; [12]): 96/96; Sphere-containing wells/total wells (HCT116 cells; [13]): 96/96; Sphere-containing wells/total wells (HCT116 cells; [14]): 60/96; Sphere-containing wells/total wells (HCT116 cells; [15]): 96/96; Sphere-containing wells/total wells (HCT116 cells; [16]): 96/96; Sphere-containing wells/total wells (HCT116 cells; [17]): 56/96; Sphere-containing wells/total wells (HCT116 cells; [18]): 96/96; Sphere-containing wells/total wells (HCT116 cells; [19]): 96/96; tumour formation (DLD-1 cells): not; IC50 [1]: > 3000 nM; percentage of cells with ALDH activity, - DEAB (Spheroid #6): 44.32%; percentage of cells with ALDH activity, + DEAB (Spheroid #6): 2.30%
